# Results: patent publication US4693992A, “Bacitracin-metal-polyether antibiotic complexes” (International Minerals & Chemical Corp., priority 1985, dated 1987)
# Legend:
# [1] = system: Eimeria tenella; assay: Anticoccidial activity in chickens inoculated with Eimeria tenella oocysts (Example 11); type: in vivo; settings: for Incidence of Bloody Droppings / Morbidity: 4th-6th day; for Morbidity: birds affected/birds in group; for Mortality: 4th-7th day, birds dead/birds in group; for F/G Day 0-3 / F/G Day 4-10: feed per gain
# Experimental: (§1) This example describes experimental testing of complexes of this invention for anticoccidial activity. Anticoccidial activities of test compounds were determined by administering the compounds (in feed) to chickens inoculated with active oocysts of Eimeria tenella. The test compounds, which are listed in Table 1 below, included four bacitracin-metal-polyether antibiotic complexes prepared according to the procedures described above. In addition, sodium lysocellin, regular bacitracin, sodium monensin, sodium lasolocid, and unmedicated inoculated and noninoculated controls were included for comparative purposes.
# (§2) The test animals were Hubbard White Mountain male chicken (broiler strain) that were 5 days old at the beginning of the test. Each experimental compound was administered in a chick starter diet (Table 2) at a level of 80 g/ton and 120 g/ton. At 7 days of age, chicks were individually weighed, banded, and started on their respective treatments. Each treatment was replicated three times with five birds per replicate for a total of 15 birds per group. The test period was 10 days.
# Seventy-two hours after the initiation of medication, birds were reweighed and orally inoculated with approximately 100,000 Eimeria tenella oocysts suspended in a 1 cc dose of saline. The following criteria were then evaluated over the next seven days: […]
# a. morbidity (4th-6th day) b. mortality (4th-7th day) c. incidence of bloody droppings (4th-6th day)
# [2] = system: Eimeria tenella; assay: Anticoccidial activity in chickens inoculated with Eimeria tenella (Example 12); type: in vivo, chicken; settings: for Cecal Bleeding / Gain/Bird Days 0-3 / Gain/Bird Days 4-10: regrouped part of Table 2
# Experimental: as §1, §2
# Seventy-two hours after the initiation of medication, birds were reweighed and orally inoculated with approximately 100,000 Eimeria tenella oocysts suspended in a 1 cc dose of saline. The following criteria were then evaluated over the next seven days:
# A satisfactory challenge was obtained with Eimeria tenella.
# [3] = Weight gain and feed utilization efficiency in chicks, 11 days (Example 13); type: in vivo, chicken; parameters: key to Average Weight: average weight in grams; settings: .00275% in rye basal diet
# Experimental: (§3) This example describes experimetnal testing of complexes of the present invention as feed additives for improving weight gain or feed utilization efficiency in birds. Test animals were male meat-type chickens (Hubbard strain). Fluorescent room lights were on a 16 hours light/8 hours dark schedule. The chicks were allotted to the pens on the basis of weight classes, and chicks in the even numbered pens were wing banded. Group weights were obtained at the start and individual weights at the termination of the experiment. Chicks weighing between 55 and 65 grams were selected for the test. The test compounds were blended with a basal feed ration (shown in Table 2) at the indicated concentration. Birds fed […] and feed supplemented with zinc bacitracin (Baciferm® 50, International Minerals and Chemical Corp.) were used as controls. The test was continued for 11 days, after which individual weights, pen weight and feed consumption were recorded and analyzed.
# [4] = Weight gain and feed utilization in chicks, 12 days (Example 14); type: in vivo, chicken; settings: .0066% in feed
# Experimental: as §3
# All of the bacitracin-metal-polyether antibiotic complexes tested produced statistically significant increases in gains compared to the unmedicated basal ration.
# The test involving test compounds 1 and 3-14 consisted of 5 replicates of 7 chicks and those involving test compound 2 consisted of 6 replicates of 7 chicks. The tests were continued for 12 days, after which individual weight gains and feed conusumption were recorded and analyzed.
compound,measurement,setting,value
"CC[C@@H](C(=O)[C@@H](C)[C@@H](O)[C@H](C)CCc1ccc(C)c(O)c1C(=O)O)[C@H]1O[C@](CC)([C@H]2CC[C@](O)(CC)[C@H](C)O2)C[C@@H]1C [Lasalocid, sodium lasalocid, reference compound]",anticoccidial activity (in words),"[1]; 80 and 120 g/ton, mild E. tenella challenge",excellent anticoccidial activity
same,Incidence of Bloody Droppings,[1]; 80 g/ton in feed,None
same,Morbidity,[1]; 80 g/ton in feed,0/15
same,Mortality,[1]; 80 g/ton in feed,0/15
same,"Gain, Grams Day 0-3",[1]; 80 g/ton in feed,59.7 Grams
same,"Gain, Grams Day 4-10",[1]; 80 g/ton in feed,232.4 Grams
same,F/G Day 0-3,[1]; 80 g/ton in feed,1.68
same,F/G Day 4-10,[1]; 80 g/ton in feed,1.58
same,Incidence of Bloody Droppings,[1]; 120 g/ton in feed,None
same,Morbidity,[1]; 120 g/ton in feed,1/15
same,Mortality,[1]; 120 g/ton in feed,0/15
same,"Gain, Grams Day 0-3",[1]; 120 g/ton in feed,55.7 Grams
same,"Gain, Grams Day 4-10",[1]; 120 g/ton in feed,230.1 Grams
same,F/G Day 0-3,[1]; 120 g/ton in feed,1.75
same,F/G Day 4-10,[1]; 120 g/ton in feed,1.56
same,Cecal Bleeding,[2]; 14 g/ton Lasalocid (Approx.),Severe
same,Gain/Bird Days 0-3,[2]; 14 g/ton Lasalocid (Approx.),58.7
same,Gain/Bird Days 4-10,[2]; 14 g/ton Lasalocid (Approx.),148.5
same,Cecal bleeding associated with E. tenella infections,[2]; 24 (.30 of 80) gram per ton,severe
same,Incidence of Bloody Droppings,[2]; 24 g/ton in feed,Severe
same,Morbidity,[2]; 24 g/ton in feed,9/15
same,Mortality,[2]; 24 g/ton in feed,0/15
same,F/G Day 0-3,[2]; 24 g/ton in feed,1.78
same,Gain/Bird Grams Day 0-3,[2]; 24 g/ton in feed,58.7 Grams
same,F/G Day 4-10,[2]; 24 g/ton in feed,2.09
same,Gain/Bird Grams Day 4-10,[2]; 24 g/ton in feed,148.5 Grams
same,Cecal Bleeding,[2]; 36 g/ton Lasalocid (Approx.),Moderate
same,Gain/Bird Days 0-3,[2]; 36 g/ton Lasalocid (Approx.),61.5
same,Gain/Bird Days 4-10,[2]; 36 g/ton Lasalocid (Approx.),176.5
same,Incidence of Bloody Droppings,[2]; 36 g/ton in feed,Moderate
same,Morbidity,[2]; 36 g/ton in feed,5/14
same,Mortality,[2]; 36 g/ton in feed,1/14
same,F/G Day 0-3,[2]; 36 g/ton in feed,1.74
same,Gain/Bird Grams Day 0-3,[2]; 36 g/ton in feed,61.5 Grams
same,F/G Day 4-10,[2]; 36 g/ton in feed,1.86
same,Gain/Bird Grams Day 4-10,[2]; 36 g/ton in feed,176.5 Grams
same,Incidence of Bloody Droppings,[2]; 80 g/ton in feed,None
same,Morbidity,[2]; 80 g/ton in feed,1/15
same,Mortality,[2]; 80 g/ton in feed,0/15
same,F/G Day 0-3,[2]; 80 g/ton in feed,1.71
same,Gain/Bird Grams Day 0-3,[2]; 80 g/ton in feed,58.0 Grams
same,F/G Day 4-10,[2]; 80 g/ton in feed,1.60
same,Gain/Bird Grams Day 4-10,[2]; 80 g/ton in feed,219.4 Grams
same,Incidence of Bloody Droppings,[2]; 120 g/ton in feed,None
same,Morbidity,[2]; 120 g/ton in feed,0/15
same,Mortality,[2]; 120 g/ton in feed,0/15
same,F/G Day 0-3,[2]; 120 g/ton in feed,1.76
same,Gain/Bird Grams Day 0-3,[2]; 120 g/ton in feed,52.1 Grams
same,F/G Day 4-10,[2]; 120 g/ton in feed,1.52
same,Gain/Bird Grams Day 4-10,[2]; 120 g/ton in feed,225.2 Grams
Bacitracin-Zn-Lasalocid Complex,Average Gain,[3]; 11 days,225 g
same,Gain/Feed Ratio,[3]; 11 days,65.6
same,Average Weight,[3]; Table 4,285.6
same,Gain/Feed,[3]; Table 4,65.6
same,Average Gain Index,[3]; unmedicated = 100,109.4
same,Gain/Feed Ratio Index,[3]; unmedicated = 100,103.0
same,Gain/Feed Data,[4]; 12 days,.609
same,Gains/gram Data,[4]; 12 days,213.5 gram
same,Gain/Feed Index Relative to #1,[4]; #1 = unmedicated,108.2
same,Gains Index Relative to #1,[4]; #1 = unmedicated,115.3
same,Gain/Feed Index Relative to #2,[4]; #2 = zinc bacitracin,102.2
same,Gains Index Relative to #2,[4]; #2 = zinc bacitracin,101.9
Bacitracin-Copper-Lysocellin Complex [Example 2],Incidence of Bloody Droppings,[1]; 80 g/ton in feed,Severe
same,Morbidity,[1]; 80 g/ton in feed,6/15
same,Mortality,[1]; 80 g/ton in feed,1/15
same,"Gain, Grams Day 0-3",[1]; 80 g/ton in feed,59.0 Grams
same,"Gain, Grams Day 4-10",[1]; 80 g/ton in feed,200.2 Grams
same,F/G Day 0-3,[1]; 80 g/ton in feed,1.67
same,F/G Day 4-10,[1]; 80 g/ton in feed,1.74
same,Morbidity,[1]; 120 g/ton in feed,6/15
same,Mortality,[1]; 120 g/ton in feed,0/15
same,"Gain, Grams Day 0-3",[1]; 120 g/ton in feed,64.3 Grams
same,"Gain, Grams Day 4-10",[1]; 120 g/ton in feed,203.5 Grams
same,F/G Day 0-3,[1]; 120 g/ton in feed,1.69
same,F/G Day 4-10,[1]; 120 g/ton in feed,1.74
same,Cecal Bleeding,[2]; 14 g/ton Lasalocid (Approx.),Severe
same,Gain/Bird Days 0-3,[2]; 14 g/ton Lasalocid (Approx.),60.5
same,Gain/Bird Days 4-10,[2]; 14 g/ton Lasalocid (Approx.),171.5
same,Cecal Bleeding,[2]; 36 g/ton Lasalocid (Approx.),Slight-Moderate
same,Gain/Bird Days 0-3,[2]; 36 g/ton Lasalocid (Approx.),57.0
same,Gain/Bird Days 4-10,[2]; 36 g/ton Lasalocid (Approx.),198.7
same,Incidence of Bloody Droppings,[2]; 80 g/ton in feed,Severe
same,Morbidity,[2]; 80 g/ton in feed,5/15
same,Mortality,[2]; 80 g/ton in feed,0/15
same,F/G Day 0-3,[2]; 80 g/ton in feed,1.68
same,Gain/Bird Grams Day 0-3,[2]; 80 g/ton in feed,60.5 Grams
same,F/G Day 4-10,[2]; 80 g/ton in feed,1.92
same,Gain/Bird Grams Day 4-10,[2]; 80 g/ton in feed,171.5 Grams
same,Cecal bleeding associated with E. tenella infections,[2]; 80 gram per ton,severe
same,weight gains compared with those of test compound 5 and lasalocid,[2]; 80 gram per ton (lasalocid 24 gram per ton),appreciably higher
same,Morbidity,[2]; 120 g/ton in feed,4/15
same,Mortality,[2]; 120 g/ton in feed,0/15
same,F/G Day 0-3,[2]; 120 g/ton in feed,1.75
same,Gain/Bird Grams Day 0-3,[2]; 120 g/ton in feed,57.0 Grams
same,F/G Day 4-10,[2]; 120 g/ton in feed,1.74
same,Gain/Bird Grams Day 4-10,[2]; 120 g/ton in feed,198.7 Grams
same,anticoccidial activity (in words),[2]; 120 grams per ton,good anticoccidial activity
